Data from ChEMBL document CHEMBL4765290, “Design, synthesis and biological evaluation of novel dual-acting modulators targeting both estrogen receptor α (ERα) and lysine-specific demethylase 1 (LSD1) for treatment of breast cancer” (Eur J Med Chem, 2020).

Key:
MCF7 [1] = assay: cells; settings: Homo sapiens, MCF7, 72 h
Description: Antiproliferative activity against human MCF7 cells assessed as reduction in cell viability after 72 hrs by MTT assay

[2] = target: Lysine-specific histone demethylase 1A (Homo sapiens, UniProt O60341)
Description: Inhibition of LSD1 (unknown origin) incubated for 90 mins by fluorescence based assay

MCF7 [3] = assay: Induction of apoptosis in human MCF7 cells assessed as early apoptotic cells at 30 uM incubated for 24 hrs by AnnexinV-FITC and propidium iodide staining based flow cytometry analysis (reference value: 3.08 %); assay type: functional
MCF7 [4] = assay: Induction of apoptosis in human MCF7 cells assessed as late apoptotic cells at 5 uM incubated for 24 hrs by AnnexinV-FITC and propidium iodide staining based flow cytometry analysis (reference value: 7.15 %); assay type: functional
MCF7 [5] = assay: Induction of apoptosis in human MCF7 cells assessed as necrotic cells at 30 uM incubated for 24 hrs by AnnexinV-FITC and propidium iodide staining based flow cytometry analysis (reference value: 2.35 %); assay type: functional
MCF7 [6] = assay: Induction of apoptosis in human MCF7 cells assessed as necrotic cells at 10 uM incubated for 24 hrs by AnnexinV-FITC and propidium iodide staining based flow cytometry analysis (reference value: 2.35 %); assay type: functional
MCF7 [7] = assay: Induction of apoptosis in human MCF7 cells assessed as early apoptotic cells at 5 uM incubated for 24 hrs by AnnexinV-FITC and propidium iodide staining based flow cytometry analysis (reference value: 3.08 %); assay type: functional
MCF7 [8] = assay: Induction of apoptosis in human MCF7 cells assessed as viable cells at 10 uM incubated for 24 hrs by AnnexinV-FITC and propidium iodide staining based flow cytometry analysis (reference value: 87.12 %); assay type: functional; settings: read-out: Activity
MCF7 [9] = assay: Induction of apoptosis in human MCF7 cells assessed as viable cells at 30 uM incubated for 24 hrs by AnnexinV-FITC and propidium iodide staining based flow cytometry analysis (reference value: 87.12 %); assay type: functional; settings: read-out: Activity
MCF7 [10] = assay: Induction of apoptosis in human MCF7 cells assessed as viable cells at 5 uM incubated for 24 hrs by AnnexinV-FITC and propidium iodide staining based flow cytometry analysis (reference value: 87.12 %); assay type: functional; settings: read-out: Activity
MCF7 [11] = assay: Induction of apoptosis in human MCF7 cells assessed as early apoptotic cells at 10 uM incubated for 24 hrs by AnnexinV-FITC and propidium iodide staining based flow cytometry analysis (reference value: 3.08 %); assay type: functional
MCF7 [12] = assay: Induction of apoptosis in human MCF7 cells assessed as late apoptotic cells at 30 uM incubated for 24 hrs by AnnexinV-FITC and propidium iodide staining based flow cytometry analysis (reference value: 7.15 %); assay type: functional
MCF7 [13] = assay: Induction of apoptosis in human MCF7 cells assessed as late apoptotic cells at 10 uM incubated for 24 hrs by AnnexinV-FITC and propidium iodide staining based flow cytometry analysis (reference value: 7.15 %); assay type: functional
MCF7 [14] = assay: Induction of apoptosis in human MCF7 cells assessed as necrotic cells at 5 uM incubated for 24 hrs by AnnexinV-FITC and propidium iodide staining based flow cytometry analysis (reference value: 2.35 %); assay type: functional

| IC50 (MCF7 [1]) | IC50 [2] | Structure (SMILES) | further results |
| --- | --- | --- | --- |
| 30.2 µM | 7.13 µM | O=S(=O)(Oc1cccnc1Cl)C1CC2OC1C(c1ccc(O)cc1)=C2c1ccc(O)cc1 (stereo unspecified) | – |
| 7.9 µM | 5.92 µM | O=S(=O)(Oc1cccc(Br)n1)C1CC2OC1C(c1ccc(O)cc1)=C2c1ccc(O)cc1 (stereo unspecified) | – |
| 16.7 µM | > 50 µM | O=S(=O)(Oc1cccc2cccnc12)C1CC2OC1C(c1ccc(O)cc1)=C2c1ccc(O)cc1 (stereo unspecified) | – |
| 4.11 µM | 15.1 µM | O=S(=O)(Oc1ccc2ccccc2c1)C1CC2OC1C(c1ccc(O)cc1)=C2c1ccc(O)cc1 (stereo unspecified) | – |
| 4.1 µM | > 50 µM | O=S(=O)(Oc1ccc(-c2ccccc2)cc1)C1CC2OC1C(c1ccc(O)cc1)=C2c1ccc(O)cc1 (stereo unspecified) | – |
| 7.84 µM | 12.3 µM | O=S(=O)(Oc1cccnc1Br)C1CC2OC1C(c1ccc(O)cc1)=C2c1ccc(O)cc1 (stereo unspecified) | – |
| 8.79 µM | 1.55 µM | O=S(=O)(Oc1cccc(F)n1)C1CC2OC1C(c1ccc(O)cc1)=C2c1ccc(O)cc1 (stereo unspecified) | Activity (MCF7 [3]): 13.74%; Activity (MCF7 [4]): 8.57%; Activity (MCF7 [5]): 5.79%; Activity (MCF7 [6]): 2.21%; Activity (MCF7 [7]): 4.62%; viability at 10 µM (MCF7 [8]): 79.7%; viability at 30 µM (MCF7 [9]): 56.9%; viability at 5 µM (MCF7 [10]): 84.7%; Activity (MCF7 [11]): 7.1%; Activity (MCF7 [12]): 23.57%; Activity (MCF7 [13]): 11.03%; Activity (MCF7 [14]): 2.08% |
| 37.7 µM | > 50 µM | O=S(=O)(Oc1cccc2ccccc12)C1CC2OC1C(c1ccc(O)cc1)=C2c1ccc(O)cc1 (stereo unspecified) | – |
| 28.7 µM | > 50 µM | O=S(=O)(Oc1ccccc1)C1CC2OC1C(c1ccc(O)cc1)=C2c1ccc(O)cc1 (stereo unspecified) | – |

The next lines start with the molecule.

| Structure (SMILES) | IC50 (MCF7 [1]) | IC50 [2] | further results |
| --- | --- | --- | --- |
| O=S(=O)(Oc1cncc(Br)c1)C1CC2OC1C(c1ccc(O)cc1)=C2c1ccc(O)cc1 (stereo unspecified) | 16.4 µM | > 50 µM | – |
| O=S(=O)(Oc1cncc(F)c1)C1CC2OC1C(c1ccc(O)cc1)=C2c1ccc(O)cc1 (stereo unspecified) | 13.8 µM | 18.3 µM | – |
| O=S(=O)(Oc1cccc(Cl)n1)C1CC2OC1C(c1ccc(O)cc1)=C2c1ccc(O)cc1 (stereo unspecified) | 10.2 µM | 4.08 µM | – |
| CCOC(=O)c1ccc(NS(=O)(=O)C2CC3OC2C(c2ccc(O)cc2)=C3c2ccc(O)cc2)cc1 (stereo unspecified) | 18.8 µM | > 50 µM | – |
| Cc1cccc(NC(=O)C2CC3OC2C(c2ccc(O)cc2)=C3c2ccc(O)cc2)n1 (stereo unspecified) | 26.2 µM | > 50 µM | – |
| O=C(Oc1cccnc1Br)C1CC2OC1C(c1ccc(O)cc1)=C2c1ccc(O)cc1 (stereo unspecified) | 84 µM | > 50 µM | – |
| COC(=O)c1ccccc1NS(=O)(=O)C1CC2OC1C(c1ccc(O)cc1)=C2c1ccc(O)cc1 (stereo unspecified) | 30.5 µM | 30 µM | – |
| COC(=O)c1ccc(NS(=O)(=O)C2CC3OC2C(c2ccc(O)cc2)=C3c2ccc(O)cc2)cc1 (stereo unspecified) | 15.1 µM | 13.2 µM | – |
| O=C(NC1CC1)C1CC2OC1C(c1ccc(O)cc1)=C2c1ccc(O)cc1 (stereo unspecified) | > 100 µM | > 50 µM | – |
| O=C(Oc1cccnc1Cl)C1CC2OC1C(c1ccc(O)cc1)=C2c1ccc(O)cc1 (stereo unspecified) | 38.2 µM | 17.4 µM | – |
| O=S(=O)(Oc1cncc(Cl)c1)C1CC2OC1C(c1ccc(O)cc1)=C2c1ccc(O)cc1 (stereo unspecified) | 49.4 µM | > 50 µM | – |
| Cc1cccc(NC(=O)C2CC3OC2C(c2ccc(O)cc2)=C3c2ccc(O)cc2)c1 (stereo unspecified) | 44.5 µM | > 50 µM | – |
| Cc1cc(=O)oc2cc(OS(=O)(=O)C3CC4OC3C(c3ccc(O)cc3)=C4c3ccc(O)cc3)ccc12 (stereo unspecified) | 38.3 µM | 13.7 µM | – |
| O=C(NCc1ccc2c(c1)OCO2)C1CC2OC1C(c1ccc(O)cc1)=C2c1ccc(O)cc1 (stereo unspecified) | 35.2 µM | > 50 µM | – |
| O=c1cc(C(F)(F)F)c2ccc(OS(=O)(=O)C3CC4OC3C(c3ccc(O)cc3)=C4c3ccc(O)cc3)cc2o1 (stereo unspecified) | 12.5 µM | > 50 µM | – |
| CC/C(=C(\c1ccc(O)cc1)c1ccc(OCCN(C)C)cc1)c1ccccc1 [AFIMOXIFENE] | – | > 50 µM | – |
